Measured values taken from patent US9169209B2, “Compounds and compositions for the inhibition of NAMPT” (FORMA TM, LLC, priority 2011, dated 2015).

Assays:
NAMPT = NAMPT (Homo sapiens (Human), UniProt P43490); assay: Biochemical Inhibition Assay (NAMPT enzymatic reaction, NMN quantified by mass spectrometry); settings: recombinant His-tagged NAMPT, 33 nM; 1 μM NAM; read-out: Biochem IC50
Summary of the method: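 His-tagged human NAMPT from E. coli was preincubated 15 min at RT with compound in Hepes pH 7.5/MgCl2 buffer. Reaction ran 30 min at RT with 1 μM NAM, 100 μM PRPP and 2.5 mM ATP, then was quenched with formic acid. NMN was measured by RapidFire MS, normalized to L-cystathionine, and IC50 derived from % inhibition.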

A2780 cells = assay: In-Vitro Cell Proliferation Assay (SRB, 72 hours); assay type: cell-based; settings: Homo sapiens, A2780, 72 h, A2780 cells, 72 hours, sulforhodamine B; read-out: A2780 IC50
Summary of the method: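 Plated cells exposed to serially diluted compound (0.1% DMSO final) for 72 h at 37 °C, 5% CO2. Viability by SRB staining after TCA fixation, absorbance 570 nm, media-only background subtracted; % inhibition relative to DMSO-treated cells, interpolated between bracketing concentrations.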

Sequence of NAMPT (P43490 whole entry): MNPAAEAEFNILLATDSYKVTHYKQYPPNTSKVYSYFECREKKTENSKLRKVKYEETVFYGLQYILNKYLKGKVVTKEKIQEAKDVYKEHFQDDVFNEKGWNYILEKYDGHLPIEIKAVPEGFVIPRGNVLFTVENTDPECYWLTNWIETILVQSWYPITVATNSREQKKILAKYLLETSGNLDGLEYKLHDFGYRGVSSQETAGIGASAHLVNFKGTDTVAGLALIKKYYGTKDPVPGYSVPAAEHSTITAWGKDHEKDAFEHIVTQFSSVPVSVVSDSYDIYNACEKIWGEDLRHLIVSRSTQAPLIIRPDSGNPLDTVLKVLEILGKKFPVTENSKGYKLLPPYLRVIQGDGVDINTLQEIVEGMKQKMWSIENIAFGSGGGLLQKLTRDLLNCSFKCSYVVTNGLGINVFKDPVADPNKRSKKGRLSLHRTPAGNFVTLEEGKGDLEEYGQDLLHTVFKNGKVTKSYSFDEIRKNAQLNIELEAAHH

With `COc1c(C)cc(S(=O)(=O)c2ccc(NC(=O)/C=C/c3cccnc3)cc2)cc1C` [(2E)-N-{4-[(4-methoxy-3,5-dimethylbenzene)sulfonyl]phenyl}-3-(pyridin-3-yl)prop-2-enamide] the IC50 (NAMPT) was 6.7 nM and the IC50 (A2780 cells) was 49.5 nM.
For `COc1ccc(S(=O)(=O)c2ccc(NC(=O)/C=C/c3cccnc3)cc2)cc1C` [(2E)-N-{4-[(4-methoxy-3-methylbenzene)sulfonyl]phenyl}-3-(pyridin-3-yl)prop-2-enamide], the IC50 (NAMPT) was 17.1 nM and the IC50 (A2780 cells) was 116 nM.
With `O=C(/C=C/c1cccnc1)Nc1ccc(S(=O)(=O)c2ccc(-c3ccccc3)cc2)cc1` [(2E)-N-{4-[(4-phenylbenzene)sulfonyl]phenyl}-3-(pyridin-3-yl)prop-2-enamide] the IC50 (NAMPT) was 4.5 nM and the IC50 (A2780 cells) was 100 to 1000 nM.
With `CCOc1ccc(Cl)cc1S(=O)(=O)c1ccc(NC(=O)/C=C/c2cccnc2)cc1` [(2E)-N-{4-[(5-chloro-2-ethoxybenzene)sulfonyl]phenyl}-3-(pyridin-3-yl)prop-2-enamide] the IC50 (NAMPT) was 12.3 nM and the IC50 (A2780 cells) was 5.59 nM.
`COc1ccc(Cl)cc1S(=O)(=O)c1ccc(NC(=O)/C=C/c2cccnc2)cc1` [(2E)-N-{4-[(5-chloro-2-methoxybenzene)sulfonyl]phenyl}-3-(pyridin-3-yl)prop-2-enamide] showed an IC50 (NAMPT) of 4.6 nM and an IC50 (A2780 cells) of 12.6 nM.
With `COc1ccc(F)cc1S(=O)(=O)c1ccc(NC(=O)/C=C/c2cccnc2)cc1` [(2E)-N-{4-[(5-fluoro-2-methoxybenzene)sulfonyl]phenyl}-3-(pyridin-3-yl)prop-2-enamide] the IC50 (NAMPT) was 14.5 nM and the IC50 (A2780 cells) was 20.5 nM.
For `Cc1ccc(F)cc1S(=O)(=O)c1ccc(NC(=O)/C=C/c2cccnc2)cc1` [(2E)-N-{4-[(5-fluoro-2-methylbenzene)sulfonyl]phenyl}-3-(pyridin-3-yl)prop-2-enamide], the IC50 (NAMPT) was 7.4 nM and the IC50 (A2780 cells) was 90.1 nM.
`O=C(/C=C/c1cccnc1)NCc1ccc(S(=O)(=O)c2ccccc2)cc1` [(2E)-N-{[4-(benzenesulfonyl)phenyl]methyl}-3-(pyridin-3-yl)prop-2-enamide] showed an IC50 (NAMPT) of 3 nM and an IC50 (A2780 cells) of 243 nM.
`O=C(Nc1ccc(S(=O)(=O)c2ccccc2)cc1)/C(F)=C/c1cccnc1` [(2Z)-N-[4-(benzenesulfonyl)phenyl]-2-fluoro-3-(pyridin-3-yl)prop-2-enamide] showed an IC50 (NAMPT) of 7 nM and an IC50 (A2780 cells) of 347 nM.
`CC(C)CNC(=O)c1cccc(S(=O)(=O)c2ccc(NC(=O)/C=C/c3cccnc3)cc2)c1` [N-(2-methylpropyl)-3-({4-[(2E)-3-(pyridin-3-yl)prop-2-enamido]benzene}sulfonyl)benzamide] gave an IC50 (NAMPT) of 21.3 nM and an IC50 (A2780 cells) of 100 to 1000 nM.
`CC(C)NC(=O)c1cccc(S(=O)(=O)c2ccc(NC(=O)/C=C/c3cccnc3)cc2)c1` [N-(propan-2-yl)-3-({4-[(2E)-3-(pyridin-3-yl)prop-2-enamido]benzene}sulfonyl)benzamide] was tested, and the IC50 (NAMPT) was 17.6 nM and the IC50 (A2780 cells) was 100 to 1000 nM.
`O=C(/C=C/c1cccnc1)Nc1ccc(S(=O)(=O)c2cccc(C(=O)NC3CCCC3)c2)cc1` [N-cyclopentyl-3-({4-[(2E)-3-(pyridin-3-yl)prop-2-enamido]benzene}sulfonyl)benzamide] showed an IC50 (NAMPT) of 16.1 nM and an IC50 (A2780 cells) of 100 to 1000 nM.
For `CCNC(=O)c1cccc(S(=O)(=O)c2ccc(NC(=O)/C=C/c3cccnc3)cc2)c1` [N-ethyl-3-({4-[(2E)-3-(pyridin-3-yl)prop-2-enamido]benzene}sulfonyl)benzamide], the IC50 (NAMPT) was 7.3 nM and the IC50 (A2780 cells) was 100 to 1000 nM.
For `CCNC(=O)c1ccc(S(=O)(=O)c2ccc(NC(=O)/C=C/c3cccnc3)cc2)cc1` [N-ethyl-4-({4-[(2E)-3-(pyridin-3-yl)prop-2-enamido]benzene}sulfonyl)benzamide], the IC50 (NAMPT) was 14.7 nM and the IC50 (A2780 cells) was 100 to 1000 nM.
